# Test: Example 1: phase 3 trial, enavogliflozin 0.3 mg once a day as monotherapy vs placebo for 24 weeks in patients with type 2 diabetes (HbA1c, FPG, C-peptide, body weight, lipids, blood pressure, HOMA, UACR, UGCR, adiponectin, leptin, safety)
# Assay type: in vivo, human
# Settings: for Change from baseline in HOMA-IR, ANCOVA LS mean difference / Change from baseline in HOMA-β, ANCOVA LS mean difference / Change from baseline in UACR, ANCOVA LS mean difference / Change from baseline in UGCR, ANCOVA LS mean difference / Change from baseline in adiponectin, ANCOVA LS mean difference / Change from baseline in leptin, ANCOVA LS mean difference: 0.3 mg vs placebo
# Procedure: When a subject voluntarily gave written consent to participate in this clinical trial, a screening test was conducted. […] However, when the administration of a hypoglycemic agent was interrupted before the clinical trial Visit 1 (screening), at least an 8-week washout period, including the discontinuation period, was required, and during this period, a stable diet and exercise program was followed. Naïve patients were screened without a separate washout period, and the criteria for naïve patients were defined as patients who had not been administered hypoglycemic agents within 24 weeks prior to the date of obtaining written consent. […] In addition, they were instructed to maintain regular exercise and dietary control starting from 8 weeks prior to screening without changing their daily life patterns during the clinical trial period.
# [1] = Week 18, LOCF, full analysis set, 0.3 mg
# [2] = Week 18, LOCF, full analysis set
# [3] = Week 24, LOCF, full analysis set, 0.3 mg
# [4] = Week 24, LOCF, full analysis set
smiles,measurement,setting,value
"OC[C@H]1O[C@@H](c2cc(Cc3ccc(C4CC4)cc3)c(Cl)c3c2CCO3)[C@H](O)[C@@H](O)[C@@H]1O [Enavogliflozin, (2S,3R,4R,5S,6R)-2-(7-chloro-6 (4-cyclopropylbenzyl)-2,3-dihydrobenzofuran-4-yl)-6-(hydroxymethyl)tetrahydro-2H-pyran-3,4,5-triol]","Change from baseline in HOMA-IR, Median",[1],−1.10
same,"Change from baseline in HOMA-β, ANCOVA LS mean (SE)",[1],28.64
same,"Change from baseline in HOMA-β, Mean (SD)",[1],23.65
same,"Change from baseline in HOMA-β, Median",[1],5.95
same,"Change from baseline in UACR, ANCOVA LS mean (SE)",[1],-5.53 g/kg
same,"Change from baseline in UACR, Mean (SD)",[1],-8720 mg/kg
same,"Change from baseline in UACR, Median",[1],-0.75 g/kg
same,"Change from baseline in UGCR, ANCOVA LS mean (SE)",[1],51.70 mg/mg
same,"Change from baseline in UGCR, Mean (SD)",[1],50.96 mg/mg
same,"Change from baseline in UGCR, Median",[1],54.29 mg/mg
same,"Change from baseline in adiponectin, ANCOVA LS mean (SE)",[1],0.97 µg/mL
same,"Change from baseline in adiponectin, Mean (SD)",[1],0.83 µg/mL
same,"Change from baseline in adiponectin, Median",[1],0.61 µg/mL
same,"Change from baseline in leptin, ANCOVA LS mean (SE)",[1],-2.70 ng/mL
same,"Change from baseline in leptin, Mean (SD)",[1],-2.20 ng/mL
same,"Change from baseline in leptin, Median",[1],-1.21 ng/mL
same,"HOMA-IR, Mean (SD)",[1],1.99
same,"HOMA-IR, Median",[1],1.51
same,"HOMA-β, Mean (SD)",[1],70.05
same,"HOMA-β, Median",[1],43.85
same,"Leptin, Mean (SD)",[1],8.96 ng/mL
same,"Leptin, Median",[1],6.05 ng/mL
same,"UACR, Mean (SD)",[1],19480 mg/kg
same,"UACR, Median",[1],10.50 g/kg
same,"UGCR, Mean (SD)",[1],52.38 mg/mg
same,"UGCR, Median",[1],54.51 mg/mg
same,"Change from baseline in HOMA-IR, ANCOVA LS mean difference",[2],−1.49
same,"Change from baseline in HOMA-β, ANCOVA LS mean difference",[2],22.40
same,"Change from baseline in UACR, ANCOVA LS mean difference",[2],-13.39 g/kg
same,"Change from baseline in UGCR, ANCOVA LS mean difference",[2],47.66 mg/mg
same,"Change from baseline in adiponectin, ANCOVA LS mean difference",[2],1.04 µg/mL
same,"Change from baseline in leptin, ANCOVA LS mean difference",[2],-2.36 ng/mL
same,"Adiponectin, Mean (SD)",[3],9.07 µg/mL
same,"Adiponectin, Median",[3],7.57 µg/mL
same,"Change from baseline in HOMA-IR, ANCOVA LS mean (SE)",[3],−1.57
same,"Change from baseline in HOMA-IR, Mean (SD)",[3],−1.52
same,"Change from baseline in HOMA-IR, Median",[3],−0.99
same,"Change from baseline in HOMA-β, ANCOVA LS mean (SE)",[3],7.97
same,"Change from baseline in HOMA-β, Mean (SD)",[3],8.24
same,"Change from baseline in HOMA-β, Median",[3],6.10
same,"Change from baseline in UACR, ANCOVA LS mean (SE)",[3],-4.31 g/kg
same,"Change from baseline in UACR, Mean (SD)",[3],-6750 mg/kg
same,"Change from baseline in UACR, Median",[3],-0.15 g/kg
same,"Change from baseline in UGCR, ANCOVA LS mean (SE)",[3],49.76 mg/mg
same,"Change from baseline in UGCR, Mean (SD)",[3],48.97 mg/mg
same,"Change from baseline in UGCR, Median",[3],50.09 mg/mg
same,"Change from baseline in adiponectin, ANCOVA LS mean (SE)",[3],1.25 µg/mL
same,"Change from baseline in adiponectin, Mean (SD)",[3],1.28 µg/mL
same,"Change from baseline in adiponectin, Median",[3],1.08 µg/mL
same,"Change from baseline in leptin, ANCOVA LS mean (SE)",[3],-2.36 ng/mL
same,"Change from baseline in leptin, Mean (SD)",[3],-2.07 ng/mL
same,"Change from baseline in leptin, Median",[3],-0.84 ng/mL
same,"HOMA-IR, Mean (SD)",[3],1.94
same,"HOMA-IR, Median",[3],1.58
same,"HOMA-β, Mean (SD)",[3],54.64
same,"HOMA-β, Median",[3],46.65
same,"Leptin, Mean (SD)",[3],9.09 ng/mL
same,"Leptin, Median",[3],6.89 ng/mL
same,"UACR, Mean (SD)",[3],21440 mg/kg
same,"UACR, Median",[3],9.00 g/kg
same,"UGCR, Mean (SD)",[3],50.40 mg/mg
same,"UGCR, Median",[3],50.80 mg/mg
same,"Change from baseline in HOMA-IR, ANCOVA LS mean difference",[4],−1.94
same,"Change from baseline in HOMA-β, ANCOVA LS mean difference",[4],5.88
same,"Change from baseline in UACR, ANCOVA LS mean difference",[4],-13.92 g/kg
same,"Change from baseline in UGCR, ANCOVA LS mean difference",[4],47.36 mg/mg
same,"Change from baseline in adiponectin, ANCOVA LS mean difference",[4],0.98 µg/mL
same,"Change from baseline in leptin, ANCOVA LS mean difference",[4],-2.99 ng/mL
same,"Body weight, Mean",week 6,66.81 kg
same,"Diastolic blood pressure, Mean",week 6,73.81 mmHg
same,"FPG change from baseline, LS mean (SE)",week 6,−27.78(2.47) mg/dL
same,"FPG change from baseline, Mean (SD)",week 6,−25.86(20.19) mg/dL
same,"FPG, Mean (SD)",week 6,115.19(14.55) mg/dL
same,"HDL-C change from baseline, LS mean",week 6,2.40 mg/dL
same,"HDL-C change from baseline, Mean",week 6,2.07 mg/dL
same,"HDL-C, Mean",week 6,53.79 mg/dL
same,"HbA1c change from baseline, LS mean (SE)",week 6,−0.67(0.05) % p
same,"HbA1c change from baseline, Mean (SD)",week 6,−0.63(0.39) % p
same,"HbA1c, Mean (SD)",week 6,7.01(0.59) %
same,"LDL-C change from baseline, LS mean",week 6,1.23 mg/dL
same,"LDL-C change from baseline, Mean",week 6,1.55 mg/dL
same,"LDL-C, Mean",week 6,96.18 mg/dL
same,Subjects achieving HbA1c target of <6.5%,week 6,12(14.81) %
same,Subjects achieving HbA1c target of <7%,week 6,40(49.38) %
same,Subjects achieving therapeutic glycemic response (HbA1c change >0.5% or HbA1c<7%),week 6,61(75.31) %
same,"Systolic blood pressure, Mean",week 6,123.32 mmHg
same,"body weight change from baseline, LS mean",week 6,-2.03 kg
same,"body weight change from baseline, Mean",week 6,-2.05 kg
same,"diastolic blood pressure change from baseline, LS mean",week 6,−2.99 mmHg
same,"diastolic blood pressure change from baseline, Mean",week 6,−2.65 mmHg

# From patent US20260130933A1, “PHARMACEUTICAL COMPOSITION FOR PREVENTION OR TREATMENT OF NEPHROPATHY AND/OR DIABETES MELLITUS, COMPRISING ENAVOGLIFLOZIN” (DAEWOONG PHARMACEUTICAL CO., LTD., priority 2022, published 2026)
